Experimental findings from patent US10563205B2, “Nucleic acid aptamer AS1411 modified DNA tetrahedron and preparation method thereof” (Sichuan University, priority 2016, dated 2020) are described below.

The test has as its system tumor cells A549. Briefly: MTS proliferation test of tumor cells A549. To be noted: A549, 0-3.2 μM, 1.5 h exposure, then 48 h culture. Format: cell-based. The method, then:
Plating the cultured tumor cells A549 in 96-well cell culture plates (100 μL, 5×10^4 cell/well), adding pure Adriamycin or samples with predetermined concentrations (0, 0.1 μM, 0.2 μM, 0.4 μM, 0.8 μM, 1.6 μM, 3.2 μM) into the wells respectively, culturing in a cell incubator for 1.5 h, centrifuging, removing the cell culture medium in the supernatant, adding fresh culture medium to continue culturing for 48 h, then testing the proliferation rate of the cells using a MTS reagent.

Turning to `COc1cccc2c1C(=O)c1c(O)c3c(c(O)c1C2=O)C[C@@](O)(C(=O)CO)C[C@@H]3O[C@H]1C[C@H](N)[C@H](O)[C@H](C)O1` [Adriamycin], the “inhibitory effect against tumor cells as the concentration increases (proliferation rate, MTS)” value is “increases gradually”.
